Results published in US9642897B2, “Treatment of bone diseases” (THE UNIVERSITY OF SYDNEY, priority 2011, dated 2017).

Test system: OVX C57BL/6 mice (osteoporosis model)
Test: Bone histology and dynamic histomorphometry in Sham and OVX mice
Format: in vivo
Text: Nine-month-old oophorectomised (OVX) and SHAM-operated C57BL/6 mice (n=24 per group) were obtained from the Animal Resources Centre (Perth, Wash.). After 2 weeks of acclimation, mice were divided into four groups (Table 2) and received treatment in their drinking water for a total of 6 weeks. Mice treated with plain water were used as controls. Mice were housed in cages in a limited access room.
For dynamic histomorphometry, tetracycline labelling was achieved through the intraperitoneal injection of demeclocycline (20 mg/kg) (Sigma Chemicals, St. Louis, Mo., USA) to the three treated groups at 5 and 2 days before sacrifice. One side femur from each animal in each group was removed at the time of killing, fixed in 70% ethanol, dehydrated, and embedded undecalcified in methylmethacrylate (J-T Baker, Phillipsburg, N.J., USA). At 50 μm intervals, longitudinal sections of 5 and 8 μm thick were cut using a polycut-E microtome (Reichert-Jung Leica, Heerbrugg, Switzerland), placed on gelatine-coated glass slides, deplastified and stained with Goldner's trichrome. Histomorphometry was done with a semi-automatic image analysing system combining a microscope equipped with a camera lucida and digitizing tablet linked to a computer using the OsteoMeasure Software (Osteometrics Inc., Decatur, Ga., USA). Nomenclature and abbreviations of histomorphometric parameters follow the recommendations of the American Society of Bone and Mineral Research (see Parfitt et al. (1987), “Bone histomorphometry: Standardization of nomenclature, symbols and units”, J Bone Miner Res., 2: 595-610.)

O=C(O)c1ccccn1 [PA, pyridine-2-carboxylic acid]
bone turnover (fluorochrome double labelling) (Sham and OVX mice, oral PA 6 weeks): significant and dose-dependent increase in bone turnover | mineral apposition rates (MAR) (trabecular and cortical bone, vs vehicle): increased mineral apposition rates | mineralized bone (Von Kossa labelling) (vs untreated controls): higher levels of mineralized bone
